From patent publication US20090036440A1, “NOVEL PYRIMIDINE DERIVATIVES - 816” (AstraZeneca AB, priority 2007, published 2009)

Legend:
recombinant EphB4 = molecular target: T1, recombinant EphB4 (Homo sapiens, UniProt P54760); assay: In vitro EphB4 enzyme assay (Alphascreen); type: biochemical
T1 construct: recombinant active EphB4 (amino acids 563-987; Swiss-Prot Acc; No. P54760); purchased ProQinase GmbH 0178-0000-3
T1 sequence (P54760 563-987): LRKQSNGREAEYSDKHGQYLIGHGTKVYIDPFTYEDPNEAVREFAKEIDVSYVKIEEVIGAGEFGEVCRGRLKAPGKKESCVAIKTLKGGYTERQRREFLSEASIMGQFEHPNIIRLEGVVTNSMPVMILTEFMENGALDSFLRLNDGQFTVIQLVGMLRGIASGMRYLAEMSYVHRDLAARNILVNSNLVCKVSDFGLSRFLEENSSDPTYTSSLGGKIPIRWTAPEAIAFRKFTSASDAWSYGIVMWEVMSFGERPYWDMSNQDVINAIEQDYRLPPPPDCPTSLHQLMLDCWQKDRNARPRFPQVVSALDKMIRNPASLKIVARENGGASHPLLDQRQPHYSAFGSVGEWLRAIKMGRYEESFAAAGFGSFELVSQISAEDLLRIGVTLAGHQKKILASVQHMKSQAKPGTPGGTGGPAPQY
Procedure: This assay detects inhibitors of EphB4-mediated phosphorylation of a polypeptide substrate using Alphascreen™ luminescence detection technology. Briefly, recombinant EphB4 was incubated with a biotinylated-polypeptide substrate (biotin-poly-GAT) in presence of magnesium-ATP. The reaction was stopped by addition of EDTA, together with streptavidin-coated donor beads which bind the biotin-substrate containing any phosphorylated tyrosine residues. Anti-phosphotyrosine antibodies present on acceptor beads bind to phosphorylated substrate, thus bringing the donor & acceptor beads into close proximity. Subsequent excitation of the donor beads at 680 nm generated singlet oxygen species that interact with a chemiluminescer on the acceptor beads, leading to light emission at 520-620 nm. The signal intensity is directly proportional to the level of substrate phosphorylation and thus inhibition is measured by a decrease in signal.
To ensure that each well contained a total of 120 nl DMSO the wells were all backfilled as required. […] The test range of compounds was 100× the required final concentration.
Assay plates were then incubated at room temperature for 1 hour.
For assays using compounds prepared via acoustic dispensing, the assay mix was adjusted such that the final assay volume of 12 ul contained the same concentration of reagent as 10 ul of assay mix used when aqueous compounds were tested.
The plates were sealed under natural lighting conditions, wrapped in aluminium foil and incubated in the dark for a further 20 hours.
The resulting assay signal was determined on the Perkin Elmer EnVision plate reader. The minimum value was subtracted from all values, and the signal plotted against compound concentration to generate IC50 data. The method used to generate the compound dilutions was recorded with the IC50 value in the database.

human EphB4 = molecular target: T2, human EphB4 (Homo sapiens, UniProt P54760); assay: In vitro EphB4 cell assay (EphB4 phosphorylation ELISA in EphB4-CHO cells); type: cell-based; conditions: ephrin-B2 stimulated EphB4 phosphorylation, read-out: Mean IC50 values obtained using Assay B
T2 construct: to generate full-length EphB4 containing a Myc-His tag at the C-terminus; expressed in transfected cells; EphB4-CHO)
T2 sequence (P54760 16-987): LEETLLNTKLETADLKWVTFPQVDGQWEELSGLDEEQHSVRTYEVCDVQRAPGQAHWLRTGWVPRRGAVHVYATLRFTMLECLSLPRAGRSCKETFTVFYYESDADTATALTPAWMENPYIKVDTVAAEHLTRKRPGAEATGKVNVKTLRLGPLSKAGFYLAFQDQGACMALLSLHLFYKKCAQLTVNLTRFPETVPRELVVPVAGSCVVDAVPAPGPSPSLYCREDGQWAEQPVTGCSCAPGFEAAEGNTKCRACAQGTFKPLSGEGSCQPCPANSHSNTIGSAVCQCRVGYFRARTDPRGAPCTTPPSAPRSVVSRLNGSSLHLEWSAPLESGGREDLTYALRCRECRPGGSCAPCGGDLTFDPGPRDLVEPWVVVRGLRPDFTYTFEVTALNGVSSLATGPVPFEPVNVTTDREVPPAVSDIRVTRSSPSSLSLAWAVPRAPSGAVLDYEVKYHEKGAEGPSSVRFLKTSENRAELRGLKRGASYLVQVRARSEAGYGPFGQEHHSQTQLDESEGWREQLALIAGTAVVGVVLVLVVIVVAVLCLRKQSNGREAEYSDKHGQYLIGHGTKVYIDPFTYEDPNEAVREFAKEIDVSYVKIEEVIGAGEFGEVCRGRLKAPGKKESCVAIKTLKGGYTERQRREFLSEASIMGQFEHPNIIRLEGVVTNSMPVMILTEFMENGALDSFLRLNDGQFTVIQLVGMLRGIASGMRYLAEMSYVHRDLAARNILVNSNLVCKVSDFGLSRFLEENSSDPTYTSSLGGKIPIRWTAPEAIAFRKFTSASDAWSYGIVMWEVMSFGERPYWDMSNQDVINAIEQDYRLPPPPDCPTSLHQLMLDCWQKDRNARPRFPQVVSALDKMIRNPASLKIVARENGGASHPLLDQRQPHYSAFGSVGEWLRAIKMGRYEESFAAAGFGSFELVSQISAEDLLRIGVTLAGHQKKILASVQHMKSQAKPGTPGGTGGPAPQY
Procedure: The assay identifies inhibitors of cellular EphB4 by measuring a decrease in phosphorylation of EphB4 following treatment of cells with compound. The endpoint assay used a sandwich ELISA to detect EphB4 phosphorylation status. Briefly, Myc-tagged EphB4 from treated cell lysate was captured on the ELISA plate via an anti-c-Myc antibody. The phosphorylation status of captured EphB4 was then measured using a generic phosphotyrosine antibody conjugated to HRP via a calorimetric output catalysed by HRP, with level of EphB4 phosphorylation directly proportional to the colour intensity. Absorbance was measured spectrophotometrically at 450 nm.
Full length human EphB4 (Swiss-Prot Acc. No. P54760) was cloned using standard techniques from cDNA prepared from HUVEC using RT-PCR. The cDNA fragment was then sub-cloned into a pcDNA3.1 expression vector containing a Myc-His epitope tag to generate full-length EphB4 containing a Myc-His tag at the C-terminus (Invitrogen Ltd. Paisley, UK). CHO-K1 cells (LGC Promochem, Teddington, Middlesex, UK, Catalogue No. CCL-61) were maintained in HAM's F12 medium (Sigma-Aldrich Company Ltd, Gillingham, Dorset SP8 4XT, Catalogue No. N4888) containing 10% heat-inactivated foetal calf serum (PAA lab GmbH, Pasching, Austria Catalogue No. PAA-A15-043) and 1% glutamax-1 (Invitrogen Ltd., Catalogue No. 35050-038) at 37° C. with 5% CO2. CHO-K1 cells were engineered to stably express the EphB4-Myc-His construct using standard stable transfection techniques, to generate cells hereafter termed EphB4-CHO.
For each assay, 10,000 EphB4-CHO cells were seeded into each well of Costar 96-well tissue-culture plate (Fisher Scientific UK, Loughborough, Leicestershire, UK., Catalogue No. 3598) and cultured overnight in full media. On day 2, the cells were incubated overnight in 90 μl/well of media containing 0.1% Hyclone stripped-serum (Fisher Scientific UK, Catalogue No. SH30068.02). Test compounds were prepared as 10 mM stock solutions in DMSO (Sigma-Aldrich Company Ltd, Gillingham, Dorset SP8 4XT Catalogue No. 154938) and serially diluted with serum-free media to give a range of test concentrations at 10× the required final concentration. A 10 μl aliquot of each compound dilution was transferred to the cell plates in duplicate wells, and the cells incubated for 1 hour at 37° C. Each plate also contained control wells: a maximum signal was created using untreated cells, and minimum signal corresponding to 100% inhibition was created using wells containing a reference compound known to abolish EphB4 activity. […]

[1] = compound preparation: Echo (acoustic dispensing)
[2] = compound preparation: Genesis (aqueous dilution)

Row | SMILES | IC50 (recombinant EphB4; [1]) [nM] | IC50 (recombinant EphB4; [2]) [nM] | IC50 (human EphB4) [nM]
1 | COc1ccc(C)c(N(C)c2ccnc(Nc3cc(N4CCOCC4)nc(N4CCN(C)CC4)c3)n2)c1 [Example 5.1, N4-(5-methoxy-2-methylphenyl)-N4-methyl-N2-(2-(4-methylpiperazin-1-yl)-6-morpholinopyridin-4-yl)pyrimidine-2,4-diamine] | 2.31 |  | 
2 | CN(c1ccnc(Nc2cc(N3CCOCC3)nc(N3CCOCC3)c2)n1)c1ccc(F)c(Cl)c1F [Example 2.1, N′-(3-chloro-2,4-difluoro-phenyl)-N-(2,6-dimorpholin-4-ylpyridin-4-yl)-N′-methyl-pyrimidine-2,4-diamine] |  | 1120 | 8
3 | CN(c1ccnc(Nc2cc(Cl)nc(N3CCOCC3)c2)n1)c1ccc(F)c(Cl)c1F [Example 2.3, N′-(3-chloro-2,4-difluoro-phenyl)-N-(2-chloro-6-morpholin-4-yl-pyridin-4-yl)-N′-methyl-pyrimidine-2,4-diamine] |  | 1780 | 
4 | Cc1ccc(CO)cc1N(C)c1ccnc(Nc2cc(Cl)cc(N3CCOCC3)n2)n1 [Example 3, [3-[[2-[(4-chloro-6-morpholin-4-yl-pyridin-2-yl)amino]pyrimidin-4-yl]-methyl-amino]-4-methyl-phenyl]methanol] |  | 198 | 28
5 | Cc1ccc(CO)cc1N(C)c1ccnc(Nc2cc(Cl)nc(N3CCOCC3)c2)n1 [Example 4.3, [3-[[2-[(2-chloro-6-morpholin-4-yl-pyridin-4-yl)amino]pyrimidin-4-yl]-methyl-amino]-4-methyl-phenyl]methanol] |  | 473 | 

Now from value to compound:

Row | IC50 (recombinant EphB4; [1]) [nM] | IC50 (recombinant EphB4; [2]) [nM] | IC50 (human EphB4) [nM] | SMILES
6 | 3.25 |  |  | COc1ccc(C)c(N(C)c2ccnc(Nc3cc(N4CCOCC4)nc(N4CCC(O)CC4)c3)n2)c1 [Example 5.2, 1-(4-(4-((5-methoxy-2-methylphenyl)(methyl)amino)pyrimidin-2-ylamino)-6-morpholinopyridin-2-yl)piperidin-4-ol]
7 |  | 38300 | 354 | CN(c1ccnc(Nc2cc(Cl)cc(N3CCOCC3)n2)n1)c1ccc(F)c(Cl)c1F [Example 1, N′-(3-chloro-2,4-difluoro-phenyl)-N-(4-chloro-6-morpholin-4-yl-pyridin-2-yl)-N′-methyl-pyrimidine-2,4-diamine]
8 |  | 456 | 302 | Cc1ccc(CO)cc1N(C)c1ccnc(Nc2cc(N3CCOCC3)cc(N3CCOCC3)n2)n1 [Example 4.2, [3-[[2-[(4,6-dimorpholin-4-ylpyridin-2-yl)amino]pyrimidin-4-yl]-methyl-amino]-4-methyl-phenyl]methanol]
9 |  | 808 |  | CN(c1ccnc(Nc2cc(N3CCOCC3)cc(N3CCOCC3)n2)n1)c1ccc(F)c(Cl)c1F [Example 2.2, N′-(3-chloro-2,4-difluoro-phenyl)-N-(4,6-dimorpholin-4-ylpyridin-2-yl)-N′-methyl-pyrimidine-2,4-diamine]
10 |  | 6270 |  | CN(c1ccnc(Nc2cc(N3CCOCC3)nc(N3CCOCC3)n2)n1)c1ccc(F)c(Cl)c1F [Example 2.4, N′-(3-chloro-2,4-difluoro-phenyl)-N-(2,6-dimorpholin-4-ylpyrimidin-4-yl)-N′-methyl-pyrimidine-2,4-diamine]
